# Laboratory results: US20210079402A1, “INHIBITION OF ZSCAN4 FOR INHIBITION OF TUMOR GROWTH” (University of Maryland, Baltimore, priority 2018, published 2021)
# Where a SMILES comes first, the peptide text is derived from it. The star is where a group is joined. Cbz = O=C(OCc1ccccc1)*
# Assays:
# [1] = test system: autophagy in tet-ZSCAN4 Tu167 cells; experiment: Autophagy pathway assay (immunoblot); type: cell-based, human; details: 5 nM Bafilomycin A1 or 25 μM Chloroquine
# Protocol: tet-ZSCAN4 Tu167 cells were treated for 24 h with Dox and then autophagy inhibitors: 5 nM of Bafilomycin A1 or 25 μM of Chloroquine (Sigma) were added for 24 h. Whole cell lysate (50 μg) in RIPA buffer was used on 8% SDS-PAGE analyzed by immunoblot to visualize the following antigens: anti-ZSCAN4 (1:1000; Origene), anti-p62 (1:5000; Sigma), anti-LC3 (1:1000; CellSignaling Technology), Anti-Beta Actin (1:10,000; Millipore). All data shown represent at least 3 independent experiments.
# [2] = test system: proteasome; experiment: ZSCAN4 / K48 ubiquitin co-localization by confocal microscopy; type: cell-based, human; details: WT Tu167 cells, 5 h; untreated about 5%
# Protocol: Cells were fixed in ice cold methanol/acetic acid (3:1). The fixed cells were dropped on microscope slides. Antigen retrieval was performed followed by blocking for 10 min at room temperature. Primary antibody was incubated overnight at 4° C. for the following antigens: ZSCAN4 (Origene, 1:1000) and Ubiquitin Lysine 48 (Millipore 1: 2000). The slides were washed and incubated with secondary antibodies conjugated with Alexa-488 or 568 at room temperature for 1 h and then treated with DAPI and To-Pro-3 to stain the nuclei. Slides were mounted and visualized by a Zeiss 510-confocal microscope. Co-localization analyses were performed by ImageJ software (Schneider et al., 2012);
# To further validate the lysine 48 polyubiquitination of ZSCAN4 protein, WT Tu167 cells were treated with or without MG132 for 5 h and co-immunostained for anti-K48-Ub and anti-ZSCAN4 (FIG. 19C).
# [3] = test system: proteasome; experiment: ZSCAN4 accumulation after proteasome inhibition (immunoblot); type: cell-based, human
# Protocol: Nuclear proteins were fractionated using Nuclear Extraction Kit following manufacture's protocol (Active Motif). Total cell lysate was prepared in RIPA buffer and sonicated. For the detection of endogenous ZSCAN4 in Tu167 cells, cells were harvested by accutase (Millipore) and Cytoskeleton buffer (10 mM PIPES, 300 mM sucrose, 100 mM NaCl, 3 mM MgCl2, 1 mM EGTA and 0.5% Triton X100) was used to fractionate cytosolic proteins. Then, pellets were lysed in urea solution (8 M Urea in 0.01 Tris pH 8+0.1 M NaH2PO4) and sonicated. Nuclear proteins were electrophoresed in 8% polyacrylamide gels and transferred to a PVDF membrane. Immunoblot was performed using the following primary antibodies: ZSCAN4 (Origene; 1:1000), GAPDH (Santa Cruz; 1:5000), Actin (Sigma; 1:500), Lamin B (Santa Cruz; 1:2000) and with HRP (horseradish peroxidase) conjugated secondary antibodies (Millipore; 1:5000). Protein bands were detected using Pierce ECL Western Blotting Substrate (Thermo Scientific). SuperSignal West Femto (Thermo Scientific) was used to detect endogenous ZSCAN4 in Tu167 cells. All immunoblots shown represent at least 3 independent experiments.
# WT Tu167 cells were treated with indicated concentration of MG132 for 3-12 h. Cells treated with vehicle only were used as controls. Nuclear protein was isolated using urea extraction buffer. Then, 100 μg of nuclear lysate was diluted in IP-RIPA buffer with 0.1% SDS and denatured by heating to 90° C. for 10 minutes. Samples were taken for co-immunoprecipitation and immunoblot analyses.
# This prompted examination of the UPS. tet-ZSCAN4 cells were incubated with the proteasome inhibitor MG132 at multiple time points. […] Furthermore, we show a time dependence (FIG. 18C) and a dose response (FIG. 18D) to proteasome inhibition by MG132.
# To exclude that the response was specific to the exogenous ZSCAN4 induction, wild type (WT) Tu167 cells were treated with 5 uM MG132 for 0-12 h.
# [4] = target: T1, telomerase (UniProt O14746 1-1132, limits assumed); experiment: ZSCAN4 complex analysis (ZSCAN4 immunoprecipitation followed by mass spectrometry)
# T1 construct: The tie to the hTERT protein subunit is my reading; also called hTERT
# T1 sequence (O14746 whole entry): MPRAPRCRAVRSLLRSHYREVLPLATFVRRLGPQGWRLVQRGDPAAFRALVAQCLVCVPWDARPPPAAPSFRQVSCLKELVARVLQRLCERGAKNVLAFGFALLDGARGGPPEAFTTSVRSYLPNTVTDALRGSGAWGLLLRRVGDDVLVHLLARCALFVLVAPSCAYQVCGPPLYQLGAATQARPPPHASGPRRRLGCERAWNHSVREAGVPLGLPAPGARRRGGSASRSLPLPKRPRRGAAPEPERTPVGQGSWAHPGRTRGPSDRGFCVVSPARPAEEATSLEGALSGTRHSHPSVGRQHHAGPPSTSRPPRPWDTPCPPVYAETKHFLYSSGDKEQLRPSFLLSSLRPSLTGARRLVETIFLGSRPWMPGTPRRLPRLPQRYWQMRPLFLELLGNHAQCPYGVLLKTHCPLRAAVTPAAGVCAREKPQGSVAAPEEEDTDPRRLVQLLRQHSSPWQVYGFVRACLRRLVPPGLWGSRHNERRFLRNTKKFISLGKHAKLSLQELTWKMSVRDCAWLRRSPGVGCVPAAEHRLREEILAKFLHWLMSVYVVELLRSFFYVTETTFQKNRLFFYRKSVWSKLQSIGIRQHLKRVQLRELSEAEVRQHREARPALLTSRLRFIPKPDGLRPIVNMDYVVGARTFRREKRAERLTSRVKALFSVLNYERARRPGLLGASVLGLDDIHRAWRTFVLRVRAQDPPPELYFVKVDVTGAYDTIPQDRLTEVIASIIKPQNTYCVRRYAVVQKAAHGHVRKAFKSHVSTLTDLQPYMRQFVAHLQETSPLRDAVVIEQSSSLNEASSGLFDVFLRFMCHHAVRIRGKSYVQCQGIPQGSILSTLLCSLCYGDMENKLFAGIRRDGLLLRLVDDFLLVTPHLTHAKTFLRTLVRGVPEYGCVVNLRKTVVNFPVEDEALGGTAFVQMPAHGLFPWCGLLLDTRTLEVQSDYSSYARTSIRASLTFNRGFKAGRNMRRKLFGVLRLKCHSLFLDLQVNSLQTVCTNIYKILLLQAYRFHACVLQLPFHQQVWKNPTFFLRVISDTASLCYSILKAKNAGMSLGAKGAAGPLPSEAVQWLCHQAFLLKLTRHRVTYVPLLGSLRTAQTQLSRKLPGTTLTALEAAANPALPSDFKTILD
molecule,measurement,setting,value
CCN(CC)CCCC(C)Nc1ccnc2cc(Cl)ccc12 (stereo not drawn) [Chloroquine],ZSCAN4 levels,[1],remained unchanged
same,p62 and LC-3 levels,[1],accumulate
CC(C)C[C@@H](C=O)NC(=O)[C@H](CC(C)C)NC(=O)[C@H](CC(C)C)NC(=O)OCc1ccccc1 [MG132] (Cbz-Leu-Leu-Leu-aldehyde),fraction of ZSCAN4 co-localized with K48-Ub relative to untreated,[2],4 fold
same,ZSCAN4 accumulation versus dose,[3]; tet-ZSCAN4 cells,dose response
same,ZSCAN4 accumulation over time,"[3]; tet-ZSCAN4 cells, multiple time points through 12 h",time dependent accumulation of ZSCAN4
same,endogenous ZSCAN4 level,"[3]; wild type Tu167 cells, 5 uM, 0-12 h",endogenous ZSCAN4 accumulates
CO/C1=C\C(C)=C\[C@@H](C)[C@@H](O)[C@@H](C)C/C(C)=C/C=C/[C@H](OC)[C@@H]([C@@H](C)[C@@H](O)[C@H](C)[C@@]2(O)C[C@@H](O)[C@H](C)[C@@H](C(C)C)O2)OC1=O [Bafilomycin A1],ZSCAN4 levels,[1],remained unchanged
same,p62 and LC-3 levels,[1],accumulate
"human ZSCAN4 (Zinc finger and SCAN domain containing 4) (other, UniProt Q8NAM6 1-433, looked up, Immunoprecipitated from nuclear protein lysates; also called FLAG-ZSCAN4; tet-FLAG-ZSCAN4) MALDLRTIFQCEPSENNLGSENSAFQQSQGPAVQREEGISEFSRMVLNSFQDSNNSYARQELQRLYRIFHSWLQPEKHSKDEIISLLVLEQFMIGGHCNDKASVKEKWKSSGKNLERFIEDLTDDSINPPALVHVHMQGQEALFSEDMPLRDVIVHLTKQVNAQTTREANMGTPSQTSQDTSLETGQGYEDEQDGWNSSSKTTRVNENITNQGNQIVSLIIIQEENGPRPEEGGVSSDNPYNSKRAELVTARSQEGSINGITFQGVPMVMGAGCISQPEQSSPESALTHQSNEGNSTCEVHQKGSHGVQKSYKCEECPKVFKYLCHLLAHQRRHRNERPFVCPECQKGFFQISDLRVHQIIHTGKKPFTCSMCKKSFSHKTNLRSHERIHTGEKPYTCPFCKTSYRQSSTYHRHMRTHEKITLPSVPSTPEAS",binding result,[4],no binding
